Measured values as given in patent publication US9765056B2, “Indole and pyrrole compounds, a process for their preparation and pharmaceutical compositions containing them” (LES LABORATOIRES SERVIER, priority 2013, dated 2017).
Counter-ions that a name gives are not always drawn.

Legend:
[1] = test system: RS4;11 leukaemia tumour line; assay: In vitro cytotoxicity, Microculture Tetrazolium Assay (MTT); type: cell-based; settings: Homo sapiens; RS4;11 cells, 48 hours exposure
Procedure: The cytotoxicity studies were carried out on the RS4;11 leukaemia tumour line.
The cells are distributed onto microplates and exposed to the test compounds for 48 hours. The cell viability is then quantified by a colorimetric assay, the Microculture Tetrazolium Assay (Cancer Res., 1987, 47, 939-942).

Bcl-2 protein = Bcl-2 protein (histag-Bcl-2, UniProtKB P10415) (Homo sapiens (Human), UniProt P10415); assay: Inhibition of Bcl-2 by the fluorescence polarisation technique; type: binding; settings: fluorescence polarisation test; method A, or method B where underlined (underlining not visible); read-out: IC50 (nM) Bcl-2 FP
Chain of Bcl-2 protein (P10415 whole entry): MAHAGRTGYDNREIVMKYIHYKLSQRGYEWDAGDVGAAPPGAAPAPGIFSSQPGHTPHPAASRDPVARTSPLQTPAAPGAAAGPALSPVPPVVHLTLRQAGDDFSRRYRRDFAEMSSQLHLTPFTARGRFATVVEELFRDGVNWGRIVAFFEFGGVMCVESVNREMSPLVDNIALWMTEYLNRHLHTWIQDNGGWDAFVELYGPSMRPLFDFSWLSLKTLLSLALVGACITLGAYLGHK
Source text: Inhibition of Bcl-2 by the fluorescence polarisation technique

IC50 (Bcl-2 protein) | Compound | IC50 [1]
5.9 nM | Cc1cc(C(=O)N(c2ccc(O)cc2)c2ccc3c(ccn3C)c2)cn1-c1cc2c(cc1C(=O)N1Cc3ccccc3C[C@H]1CN1CCOCC1)CCO2 [Example 118, N-(4-Hydroxyphenyl)-5-methyl-N-(1-methyl-1H-indol-5-yl)-1-(5-{[(3S)-3-(morpholin-4-ylmethyl)-3,4-dihydroisoquinolin-2(1H)-yl]carbonyl}-2,3-dihydro-1-benzofuran-6-yl)-1H-pyrrole-3-carboxamide] | 114 nM
85.5 nM | Cc1cc(C(=O)N(c2ccc(O)cc2)c2ccc3[nH]ccc3c2)cn1-c1cc(Br)ccc1C(=O)N1Cc2ccccc2C[C@H]1CN1CCC(F)(F)CC1 [Example 79, 1-(5-Bromo-2-{[(3S)-3-[(4,4-difluoropiperidin-1-yl)methyl]-3,4-dihydroisoquinolin-2(1H)-yl]carbonyl}phenyl)-N-(4-hydroxyphenyl)-N-(1H-indol-5-yl)-5-methyl-1H-pyrrole-3-carboxamide] | 344 nM
213 nM | Cc1cc(C(=O)N(c2ccccc2)c2ccccc2)cn1-c1ccccc1C(=O)N1Cc2ccccc2C[C@H]1CN [Example 5, 1-(2-{[(3S)-3-(Aminomethyl)-3,4-dihydroisoquinolin-2(1H)-yl]-carbonyl}phenyl)-5-methyl-N,N-diphenyl-1H-pyrrole-3-carboxamide trifluoroacetate] | 2590 nM
15.6 nM | Cc1cc(C(=O)N(c2ccccc2)c2ccc(O)cc2)cn1-c1cc2c(cc1C(=O)N1Cc3ccccc3C[C@H]1CN1CCN(C)CC1)OCO2 [Example 24, N-(4-Hydroxyphenyl)-5-methyl-1-(6-{[(3S)-3-[(4-methylpiperazin-1-yl)methyl]-3,4-dihydroisoquinolin-2(1H)-yl]carbonyl}-1,3-benzodioxol-5-yl)-N-phenyl-1H-pyrrole-3-carboxamide] | 140 nM
13.6 nM | COc1cc(-n2cc(C(=O)N(c3ccccc3)c3ccc(F)cc3)c3ccccc32)c(C(=O)N2Cc3ccccc3C[C@H]2CN2CCN(C)CC2)cc1O [Example 190, N-(4-Fluorophenyl)-1-{4-hydroxy-5-methoxy-2-[(3S)-3-[(4-methylpiperazin-1-yl)methyl]-1,2,3,4-tetrahydroisoquinoline-2-carbonyl]phenyl}-N-phenyl-1H-indole-3-carboxamide dihydrochloride] | 645 nM
1110 nM | CN1CCN(C[C@@H]2Cc3ccccc3CN2C(=O)c2cc3c(cc2-n2cc(C(=O)N(CCc4ccccc4)c4ccc(Cl)cc4)c4ccccc42)OCO3)CC1 [Example 36, N-(4-Chlorophenyl)-1-(6-{[(3S)-3-[(4-methylpiperazin-1-yl)methyl]-3,4-dihydroisoquinolin-2(1H)-yl]carbonyl}-1,3-benzodioxol-5-yl)-N-(2-phenylethyl)-1H-indole-3-carboxamide] | 2420 nM
20.5 nM | CN1CCN(C[C@@H]2Cc3ccccc3CN2C(=O)c2cc3c(cc2-n2cc(C(=O)N(c4ccc(O)cc4)c4ccc(F)c(Cl)c4)c4ccccc42)OCO3)CC1 [Example 58, N-(3-Chloro-4-fluorophenyl)-N-(4-hydroxyphenyl)-1-(6-{[(3S)-3-[(4-methylpiperazin-1-yl)methyl]-3,4-dihydroisoquinolin-2(1H)-yl]carbonyl}-1,3-benzodioxol-5-yl)-1H-indole-3-carboxamide hydrochloride] | 190 nM
4.9 nM | Cc1cc(C(=O)N(c2ccc(O)cc2)c2ccc3c(ccn3C)c2)cn1-c1cc(Cl)c(F)cc1C(=O)N1Cc2ccccc2C[C@H]1CN1CCN(C)CC1 [Example 77, 1-(5-Chloro-4-fluoro-2-{[(3S)-3-[(4-methylpiperazin-1-yl)methyl]-3,4-dihydroisoquinolin-2(1H)-yl]carbonyl}phenyl)-N-(4-hydroxyphenyl)-5-methyl-N-(1-methyl-1H-indol-5-yl)-1H-pyrrole-3-carboxamide hydrochloride] | 207 nM
31.1 nM | CN1CCN(C[C@@H]2Cc3ccccc3CN2C(=O)c2cc3c(cc2-n2cc(C(=O)N(c4ccccc4)c4ccc(O)cc4)c4cc(F)ccc42)OCO3)CC1 [Example 195, 5-Fluoro-N-(4-hydroxyphenyl)-1-{6-[(3S)-3-[(4-methylpiperazin-1-yl)methyl]-1,2,3,4-tetrahydroisoquinoline-2-carbonyl]-2H-1,3-benzodioxol-5-yl}-N-phenyl-1H-indole-3-carboxamide] | 507 nM
50.5 nM | Cc1cc(C(=O)N(c2ccccc2)c2ccccc2)cn1-c1cc(O)ccc1C(=O)N1Cc2ccccc2C[C@H]1CN [Example 6, 1-(2-{[(3S)-3-(Aminomethyl)-3,4-dihydroisoquinolin-2(1H)-yl]-carbonyl}-5-hydroxyphenyl)-5-methyl-N,N-diphenyl-1H-pyrrole-3-carboxamide] | 915 nM
22.1 nM | Cc1cc(C(=O)N(c2ccccc2)c2ccc(O)cc2)cn1-c1cc(O)ccc1C(=O)N1Cc2ccccc2C[C@H]1CN1CCOCC1 [Example 15, 1-(5-Hydroxy-2-{[(3S)-3-(morpholin-4-ylmethyl)-3,4-dihydroisoquinolin-2(1H)-yl]carbonyl}phenyl)-N-(4-hydroxyphenyl)-5-methyl-N-phenyl-1H-pyrrole-3-carboxamide] | 759 nM
70.6 nM | NC[C@@H]1Cc2ccccc2CN1C(=O)c1cc(NCc2ccccc2)ccc1-n1nc(C(=O)N(c2ccccc2)c2ccccc2)c2ccccc21 [Example 142, 1-{2-[(3S)-3-(Aminomethyl)-1,2,3,4-tetrahydroisoquinoline-2-carbonyl]-4-(benzylamino)phenyl}-N,N-diphenyl-1H-indazole-3-carboxamide] | 2290 nM
28.4 nM | Cc1cc(C(=O)N(c2ccc(O)cc2)c2ccc3c(ccn3C)c2)cn1-c1cc2occc2cc1C(=O)N1Cc2ccccc2C[C@H]1CN1CCOCC1 [Example 119, N-(4-Hydroxyphenyl)-5-methyl-N-(1-methyl-1H-indol-5-yl)-1-(5-{[(3S)-3-(morpholin-4-ylmethyl)-3,4-dihydroisoquinolin-2(1H)-yl]carbonyl}-1-benzofuran-6-yl)-1H-pyrrole-3-carboxamide hydrochloride] | 96.4 nM
71.8 nM | O=C(c1cn(-c2cc(Cl)ccc2C(=O)N2Cc3ccccc3C[C@H]2CN2CCCCC2)c2ccccc12)N(c1ccccc1)c1ccc(O)cc1 [Example 171, 1-{5-Chloro-2-[(3S)-3-(piperidin-1-ylmethyl)-1,2,3,4-tetrahydroisoquinoline-2-carbonyl}phenyl]-N-(4-hydroxyphenyl)-N-phenyl-1H-indole-3-carboxamide] | 1050 nM
13.1 nM | COc1ccc(N(C(=O)c2cn(-c3cc4c(cc3C(=O)N3Cc5ccccc5C[C@H]3CN3CCN(C)CC3)OCO4)c3ccccc23)c2ccc(O)cc2)cc1 [Example 49, N-(4-Hydroxyphenyl)-N-(4-methoxyphenyl)-1-(6-{[(3S)-3-[(4-methylpiperazin-1-yl)methyl]-3,4-dihydroisoquinolin-2(1H)-yl]carbonyl}-1,3-benzodioxol-5-yl)-1H-indole-3-carboxamide] | 136 nM
23.7 nM | Cc1cc(C(=O)N(c2ccc(O)cc2)c2ccc3c(c2)CN(C)C3)cn1-c1cc2c(cc1C(=O)N1Cc3ccccc3C[C@H]1C)OCO2 [Example 114, N-(4-Hydroxyphenyl)-5-methyl-N-(2-methyl-2,3-dihydro-1H-isoindol-5-yl)-1-(6-{[(3R)-3-methyl-3,4-dihydroisoquinolin-2(1H)-yl]carbonyl}-1,3-benzodioxol-5-yl)-1H-pyrrole-3-carboxamide hydrochloride] | 726 nM
3.5 nM | Cc1ccc(N(C(=O)c2cn(-c3cc4c(cc3C(=O)N3Cc5ccccc5C[C@H]3CN3CCN(C)CC3)OCO4)c3ccccc23)c2ccc(O)cc2)cc1 [Example 32, N-(4-Hydroxyphenyl)-N-(4-methylphenyl)-1-(6-{[(3S)-3-[(4-methylpiperazin-1-yl)methyl]-3,4-dihydroisoquinolin-2(1H)-yl]carbonyl}-1,3-benzodioxol-5-yl)-1H-indole-3-carboxamide] | 63.7 nM
120 nM | Cc1cc(C(=O)N(c2ccccc2)c2ccc(O)cc2)cn1-c1cc(C(F)(F)F)ccc1C(=O)N1Cc2ccccc2C[C@H]1CN(C)C [Example 12, 1-[2-{[(3S)-3-[(Dimethylamino)methyl]-3,4-dihydroisoquinolin-2(1H)-yl]carbonyl}-5-(trifluoromethyl)phenyl]-N-(4-hydroxyphenyl)-5-methyl-N-phenyl-1H-pyrrole-3-carboxamide] | 1810 nM
218 nM | COc1cc(-n2nc(C(=O)N(c3ccccc3)c3ccccc3)c3ccccc32)c(C(=O)N2Cc3ccccc3C[C@H]2CN)cc1N [Example 152, 1-{4-Amino-2-[(3S)-3-(aminomethyl)-1,2,3,4-tetrahydroisoquinoline-2-carbonyl]-5-methoxyphenyl}-N,N-diphenyl-1H-indazole-3-carboxamide] | 2160 nM
3.2 nM | COc1cc(-n2cc(C(=O)N(c3ccccc3)c3ccc(O)cc3)c3ccccc32)c(C(=O)N2Cc3ccccc3C[C@H]2CN2CCN(C)CC2)cc1O [Example 165, 1-{4-Hydroxy-5-methoxy-2-[(3S)-3-[(4-methylpiperazin-1-yl)methyl]-1,2,3,4-tetrahydroisoquinoline-2-carbonyl}phenyl]-N-(4-hydroxyphenyl)-N-phenyl-1H-indole-3-carboxamide dihydrochloride] | 179 nM
19.6 nM | Cc1ccc(N(C(=O)c2cc(C)n(-c3cc4c(cc3C(=O)N3Cc5ccccc5C[C@H]3CN3CCOCC3)OCO4)c2)c2ccc(O)cc2)cc1 [Example 106, N-(4-Hydroxyphenyl)-5-methyl-N-(4-methylphenyl)-1-(6-{[(3S)-3-(morpholin-4-ylmethyl)-3,4-dihydroisoquinolin-2(1H)-yl]carbonyl}-1,3-benzodioxol-5-yl)-1H-pyrrole-3-carboxamide hydrochloride] | 521 nM
